Patent publication US20180085423A1, “METHODS FOR TREATING AND DIAGNOSING EATING DISORDERS” (THE TRUSTEES OF COLUMBIA UNIVERSITY IN THE CITY OF NEW YORK, priority 2015, published 2018)
Entries after “also recorded” stand apart in the source; their conditions may differ. Starred links: 1 amine or outer side, 2 acyl side, 3 side chain; linkers in the order of their positions; H or OH if unused. Positions of bridges follow the written chain, without caps; N, C: chain ends. Residues, ends and D or L forms follow the SMILES beside them. X1 = O=C(CC1(S[*:2])CCCCC1)[*:1]

Tests used:
GED mice = assay: Food intake of GED mice during an aphagic episode after i.p. injection of an AVPR1A antagonist; type: in vivo; settings: for food intake versus saline-injected GED mice, 1 hour after treatment: Compound 1 7 μg/kg, SR49059 2 mg/kg
Experimental: In the morning of the first day of an aphagic episode (≧18 hr of aphagia), GED mice were injected i.p. with 7 μg/kg Compound 1 (Sigma) vs. saline.
To determine the extent to which treatment with Compound 1 rescued the normal drive to re-feed after overnight fast, food intake in a group of saline-injected GED mice that were eating normally were also measured, and were then subjected to an investigator-initiated overnight fast (a condition when AVPR1A should not be elevated in the amygdala) (triangle data points, FIG. 11).
Next, the possibility that AVPR1A antagonists could be used to restore feeding behavior in GED mice during an acute aphagic episode was explored. It was studied whether peripheral injection of Compound 1 and SR49059 can reverse anorexigenic behavior in the GED mouse model. To this end, the impact of i.p. injections of […] of Compound 1 vs. 2 mg/kg SR49059 vs. saline in the morning of the first day of an aphagic episode (≧18 h of aphagia) was assessed.
Mice were given ad libitum access to food immediately after the injection and food intake was measured after 1 hour and 2 hours.

[1] = tested on: wild-type C57BL6/J females; assay: Block of the impact of central injection of AVP (3 ng i.c.v.) on food intake after an overnight fast; type: in vivo, mice; settings: fasted wild-type females; for reversal of AVP-induced hypophagia (1 hour food intake): peripheral injection, Compound 1 7 μg/kg, SR49059 2 mg/kg, AVP 3 ng i.c.v.
Experimental: First, it was confirmed that the antagonist compounds act as predicted by assessing their ability to block the impact of central injection of AVP (3 ng i.c.v.) on food intake after an overnight fast in wild-type C57BL6/J females.

wild-type mice [2] = assay: Food intake after an overnight fast in wild-type mice injected with Compound 1; type: in vivo; settings: wild-type mice at 7-8 weeks of age, versus saline
Experimental: It was also investigated whether Compound 1 acts as a generic appetite stimulant. To test this idea, the impact of injecting Compound 1 after an overnight fast in wild-type mice at 7-8 weeks of age (FIG. 11, diamond data points) was tested.

[3] = tested on: Avpr1a−/− mutants (AVPR1a KO); assay: Intra-amygdala AVP injection, food intake in Avpr1a-/- mutants; type: in vivo, mice; settings: 0.03 ng AVP intra-amygdala vs. saline
Experimental: (§1) In this example, it was tested whether the anorexic effect of AVP can also be achieved by intra-amygdala injections. The amygdala is a long structure extending from −0.58 mm to −2.5 mm to Bregma. To select the stereotaxic coordinates for the injections, qPCR for Avpr1a on serial 200 μm vibratome sections was performed across the entire amygdala. A peak of expression at −1.4 mm was observed. Unilateral injections of 0.03 ng AVP (vs. saline, in a random crossover design) were made into the amygdala of wild-type mice at this position (dorso-ventral −4.5 mm, lateral −2.4 mm (right side) and rostro-caudal −1.4 mm) (see FIG. 13A).
Since AVP can also bind to AVPR1b and OxtR, the intra-amygdala injections were repeated in Avpr1a−/− mutants (AVPR1a KO) as described above for the wild-type mice.

wild-type mice [4] = assay: Intra-amygdala AVP injection, food intake in wild-type mice; type: in vivo; settings: 0.03 ng AVP unilateral intra-amygdala vs. saline
Experimental: as §1

[5] = GED mice during aphagic episode, i.p., 1 hour

SMILES | food intake versus saline-injected GED mice, 1 hour after treatment (GED mice; [5]) | reversal of AVP-induced hypophagia (1 hour food intake) ([1]; 2 mg/kg) | food intake in wild-type animals after an overnight fast (wild-type mice [2]) | rescue of food intake at 1 hour relative to normally eating GED mice after overnight fast (GED mice; 7 μg/kg dose, 1 hour) | rescue of food intake at 2 hours relative to normally eating GED mice after overnight fast (GED mice; 7 μg/kg dose, 2 hour) | food intake versus saline-injected GED mice, 2 hours after treatment (GED mice; GED mice during aphagic episode, i.p., 2 hours) | reversal of AVP-induced hypophagia (1 hour food intake) [1] | effect of central injection of AVP on food intake ([1]; 3 ng AVP i.c.v. vs. saline) | effect of intra-amygdala AVP on food intake, Avpr1a−/− mutants [3] | effect of intra-amygdala AVP on food intake, wild-type mice (wild-type mice [4])
COc1ccc(S(=O)(=O)N2c3ccc(Cl)cc3[C@](O)(c3ccccc3Cl)[C@@H]2C(=O)N2CCC[C@H]2C(N)=O)cc1OC [SR49059] | did not enhance food intake | did not significantly reverse AVP-induced hypophagia; also recorded: did not have that effect |  |  |  |  |  |  |  | 
COc1ccc(CC2NC(=O)CC3(CCCCC3)SSCC(C(=O)N3CCCC3C(=O)NC(CCCN=C(N)N)C(=O)NCC(N)=O)NC(=O)C(CC(N)=O)NC(=O)C(CCC(N)=O)NC(=O)C(Cc3ccccc3)NC2=O)cc1 (stereo not drawn) [Compound 1, 1-(beta-mercapto-betabeta-cycopentamethylenepropionic acid)-2-(O-methyl-Tyr)-argipressin] (Y(Me)FQNCPRG-NH2; linker N-5 via X1; configuration not given here) | consumed significantly more food |  | did not impact food intake | partial rescue | nearly normalized | consumed significantly more food | can restore 1 hour food intake; also recorded: able to reverse hypophagia |  |  | 
NC(=O)CC[C@@H]1NC(=O)[C@H](Cc2ccccc2)NC(=O)[C@H](Cc2ccc(O)cc2)NC(=O)[C@@H](N)CSSC[C@@H](C(=O)N2CCC[C@H]2C(=O)N[C@@H](CCCN=C(N)N)C(=O)NCC(N)=O)NC(=O)[C@H](CC(N)=O)NC1=O [AVP, arginine vasopressin] |  |  |  |  |  |  |  | hypophagia | did not affect food intake; also recorded: anorexic effect is not observed | food intake was reduced
